Assay results: patent US20250066339A1, “HETEROCYCLE-SUBSTITUTED AROMATIC COMPOUND, METHOD FOR PREPARING SAME, HERBICIDAL COMPOSITION, AND USE THEREOF” (QINGDAO KINGAGROOT CHEMICAL COMPOUND CO., LTD., priority 2022, published 2025)

Columns and labels:
Test in all cases: Post-emergence test on weeds
Format in all cases: in vivo
Set-up in all cases: key: Level 10: completely dead; Level 9: growth control rate greater than or equal to 90% and less than 100%; Level 8: growth control rate greater than or equal to 80% and less than 90%; Level 7: growth control rate greater than or equal to 70% and less than 80%; Level 6: growth control rate greater than or equal to 60% and less than 70%; Level 5: growth control rate greater than or equal to 50% and less than 60%; Level 4: growth control rate greater than or equal to 40% and less than 50%; Level 3: growth control rate greater than or equal to 30% and less than 40%; Level 2: growth control rate greater than or equal to 20% and less than 30%; Level 1: growth control rate less than 20%; Level 0: no effect
Conditions in all cases: 3 weeks after application, fresh weight control rate
[1] = system: Setaria viridis
Description: (§1) The activity level criteria for plant damage (i.e., growth control rate) are as follows: • Level 10: completely dead; • Level 9: growth control rate greater than or equal to 90% and less than 100%; • Level 8: growth control rate greater than or equal to 80% and less than 90%; • Level 7: growth control rate greater than or equal to 70% and less than 80%; • Level 6: growth control rate greater than or equal to 60% and less than 70%; • Level 5: growth control rate greater than or equal to 50% and less than 60%; • Level 4: growth control rate greater than or equal to 40% and less than 50%; • Level 3: growth control rate greater than or equal to 30% and less than 40%; • Level 2: growth control rate greater than or equal to 20% and less than 30%; • Level 1: growth control rate less than 20%; • Level 0: no effect.
(§2) The above growth control rates are fresh weight control rates.
(§3) Monocotyledonous and dicotyledonous weed seeds (Descurainia sophia, Capsella bursa-pastoris, Abutilon theophrasti, Galium spurium, Stellaria media, Lithospermum arvense, Rorippa indica, Alopecurus aequalis, Alopecurus japonicus, Eleusine indica, Beckmannia syzigachne, Sclerochloa dura, Erigeron canadensis, Phleum paniculatum, Veronica polita, Bromus japonicus, Aegilops tauschii, Phalaris arundinacea, Amaranthus retroflexus, Chenopodium, Commelina communis, Cichorium endivia, Convolvulus arvensis, Cirsium arvense, Solanum nigrum, Acalypha australis, Digitaria sanguinalis, Echinochloa crus-galli, Setaria viridis, Setaria pumila, Leptochloa chinensis, Monochoria vaginalis, Sagittaria trifolia, Schoenoplectiella juncoides, Cyperus rotundus, Cyperus iria, Cyperus difformis, Fimbristylis, Portulaca oleracea, Xanthium sibiricum, Ipomoea nil, Eschenbachia japonica, etc.) and major crop seeds (wheat, maize, paddy rice, soybean, cotton, oilseed rape, millet, sorghum, potato, sesame, castor plant, etc.) were placed in plastic pots filled with soil and then covered with 0.5-2 cm of soil to allow them to grow in a favorable greenhouse environment. Two weeks after sowing, the test plants were treated at the stage of 2-3 leaves. The test compounds of the present invention were individually dissolved with acetone, then added with Tween® 80, with 1.5 L/ha of methyl oleate emulsifiable concentrate as a synergist, diluted into solutions of certain concentrations using certain amount of water, and sprayed to the plants using a spray tower. After drug application, the experimental results on weeds were collected after 3 weeks of cultivation in a greenhouse. The compounds were applied at 500, 250, 125, 60, 15, and 7.5 g a.i./ha in triplicate, and the results were averaged.

[2] = system: Echinochloa crus-galli
Description: as §1, §2, §3

[3] = system: Veronica polita
Description: as §1, §2, §3

[4] = system: Digitaria sanguinalis
Description: as §1, §2, §3

[5] = system: Amaranthus retroflexus
Description: as §1, §2, §3

[6] = system: Abutilon theophrasti
Description: as §1, §2, §3

COC/C(C)=N/OC(=O)C1(C)CC(c2cc(-c3ncc(C(F)(F)F)cc3Cl)c(F)cc2Cl)=NO1 (stereo not drawn) [Compound 68]
10: activity level (growth control rate) Setaria viridis ([1]; 60 g a.i./ha) | activity level (growth control rate) Echinochloa crus-galli ([2]; 60 g a.i./ha) | activity level (growth control rate) Veronica polita ([3]; 60 g a.i./ha) | activity level (growth control rate) Digitaria sanguinalis ([4]; 60 g a.i./ha) | activity level (growth control rate) Amaranthus retroflexus ([5]; 60 g a.i./ha) | activity level (growth control rate) Abutilon theophrasti ([6]; 60 g a.i./ha)

CC(C)=NOC(=O)C1(C)CC(c2cc(-c3ncc(C(F)(F)F)cc3Cl)c(F)cc2Cl)=NO1 (stereo not drawn) [Compound 65]
10: activity level (growth control rate) Setaria viridis ([1]; 15 g a.i./ha) | activity level (growth control rate) Echinochloa crus-galli ([2]; 15 g a.i./ha) | activity level (growth control rate) Veronica polita ([3]; 15 g a.i./ha) | activity level (growth control rate) Digitaria sanguinalis ([4]; 15 g a.i./ha) | activity level (growth control rate) Amaranthus retroflexus ([5]; 15 g a.i./ha) | activity level (growth control rate) Abutilon theophrasti ([6]; 15 g a.i./ha)

COCOC(=O)C1(C)CC(c2cc(-c3ncc(C(F)(F)F)cc3Cl)c(F)cc2Cl)=NO1 (stereo not drawn) [Compound 49]
10: activity level (growth control rate) Setaria viridis ([1]; 15 g a.i./ha) | activity level (growth control rate) Echinochloa crus-galli ([2]; 15 g a.i./ha) | activity level (growth control rate) Veronica polita ([3]; 15 g a.i./ha) | activity level (growth control rate) Digitaria sanguinalis ([4]; 15 g a.i./ha) | activity level (growth control rate) Amaranthus retroflexus ([5]; 15 g a.i./ha) | activity level (growth control rate) Abutilon theophrasti ([6]; 15 g a.i./ha)

CCOC(=O)CCC1(C)CC(c2cc(-c3ncc(C(F)(F)F)cc3Cl)c(F)cc2Cl)=NO1 (stereo not drawn) [Compound 76]
10: activity level (growth control rate) Setaria viridis ([1]; 15 g a.i./ha) | activity level (growth control rate) Echinochloa crus-galli ([2]; 15 g a.i./ha) | activity level (growth control rate) Veronica polita ([3]; 15 g a.i./ha) | activity level (growth control rate) Digitaria sanguinalis ([4]; 15 g a.i./ha) | activity level (growth control rate) Amaranthus retroflexus ([5]; 15 g a.i./ha) | activity level (growth control rate) Abutilon theophrasti ([6]; 15 g a.i./ha)

C=C(C)c1cnc(-c2cc(C3=NOC(C)(C(=O)OCSC)C3)c(Cl)cc2F)c(Cl)c1 (stereo not drawn) [Compound 104]
10: activity level (growth control rate) Setaria viridis ([1]; 60 g a.i./ha) | activity level (growth control rate) Echinochloa crus-galli ([2]; 60 g a.i./ha) | activity level (growth control rate) Veronica polita ([3]; 60 g a.i./ha) | activity level (growth control rate) Digitaria sanguinalis ([4]; 60 g a.i./ha) | activity level (growth control rate) Amaranthus retroflexus ([5]; 60 g a.i./ha) | activity level (growth control rate) Abutilon theophrasti ([6]; 60 g a.i./ha)

CC1(C(=O)ON=C2CCCC2)CC(c2cc(-c3ncc(C(F)(F)F)cc3Cl)c(F)cc2Cl)=NO1 (stereo not drawn) [Compound 74]
10: activity level (growth control rate) Setaria viridis ([1]; 60 g a.i./ha) | activity level (growth control rate) Echinochloa crus-galli ([2]; 60 g a.i./ha) | activity level (growth control rate) Veronica polita ([3]; 60 g a.i./ha) | activity level (growth control rate) Digitaria sanguinalis ([4]; 60 g a.i./ha) | activity level (growth control rate) Amaranthus retroflexus ([5]; 60 g a.i./ha) | activity level (growth control rate) Abutilon theophrasti ([6]; 60 g a.i./ha)

CSCOC(=O)C1(C)CC(c2cc(-c3ncc(C(F)(F)F)cc3Cl)c(F)cc2Cl)=NO1 (stereo not drawn) [Compound 50]
10: activity level (growth control rate) Setaria viridis ([1]; 15 g a.i./ha) | activity level (growth control rate) Echinochloa crus-galli ([2]; 15 g a.i./ha) | activity level (growth control rate) Veronica polita ([3]; 15 g a.i./ha) | activity level (growth control rate) Digitaria sanguinalis ([4]; 15 g a.i./ha) | activity level (growth control rate) Amaranthus retroflexus ([5]; 15 g a.i./ha) | activity level (growth control rate) Abutilon theophrasti ([6]; 15 g a.i./ha)

CC(C)=NOC(=O)C1(C2CC2)CC(c2cc(-c3ncc(C(F)(F)F)cc3Cl)c(F)cc2Cl)=NO1 (stereo not drawn) [Compound 129]
10: activity level (growth control rate) Setaria viridis ([1]; 60 g a.i./ha) | activity level (growth control rate) Echinochloa crus-galli ([2]; 60 g a.i./ha) | activity level (growth control rate) Veronica polita ([3]; 60 g a.i./ha) | activity level (growth control rate) Digitaria sanguinalis ([4]; 60 g a.i./ha) | activity level (growth control rate) Amaranthus retroflexus ([5]; 60 g a.i./ha) | activity level (growth control rate) Abutilon theophrasti ([6]; 60 g a.i./ha)
